Measured values as given in PMC6630443 (Viruses, 2019).

Tested on: persistent USUV
Format: cell-based, Usutu virus

NC(=O)c1nc(F)cnc1O [Favipiravir, 6-fluoro-3-hydroxy-2-pyrazinecarboxamide]
USUV infectivity in supernatant after drug removal: re-emerged
Viral RNA levels in cellular supernatant by day 10: barely detectable

NC(=O)c1ncn([C@@H]2O[C@H](CO)[C@@H](O)[C@H]2O)n1 [Ribavirin, 1-(β-D-Ribofuranosyl)-1H-1,2,4-triazole-3-carboxamide]
USUV infectivity in supernatant after drug removal: re-emerged
Viral RNA levels in cellular supernatant by day 10: barely detectable
